For one assay, the system named is human macrophages. The assay can be described thus: Human macrophage cell culture assay, surface marker expression (MFI) by flow cytometry. The settings on record: MAD-PAC3.5 or equal molar equivalent concentration of free paclitaxel; vs no drug control. The class given is cell-based. The procedure: In this assay, human peripheral blood monocytes (hPBMCs) were incubated for five days in RPMI+10% FBS+1x Penicillin/Streptomycin/L-glutamine+5Ong/mlGM-CSF (complete medium) at a concentration of 500,000 monocytes per well in 48 well tissue culture plates. […] GM-CSF induces the macrophages to adopt an activated phenotype that is intermediate between the extremes of M1 or M2. […] Saline and Vehicle (MAD without a drug payload, 23.3 μg/ml) were added as alternative supplements to other cultures as negative controls. The macrophage cell cultures were incubated with the supplemented complete medium for 24 hours after which it was removed and replaced with fresh complete medium. The macrophage cultures were then incubated for an additional three days. The three-day post treatment incubation was performed to permit assessment of durable changes in macrophage phenotypes.
After the additional three-day incubation in fresh complete medium, the cells were harvested and evaluated by flow cytometry for viability (DAPI) or expression of macrophage surface markers. These markers are representative of markers that are frequently considered as indicative of either M1-like or M2-like phenotypes or are known immune checkpoint receptors. The evaluated cell surface markers included CD206, CD163, CD80, CD86, MHC1, MHC2, SIRPa, and PD-1 using antibodies specific for each marker. […] The outputs of the flow cytometry assays were mean fluorescent intensities (MFI). Macrophages differentiated from monocytes collected from three separate donors were evaluated for all treatments. For each donor's macrophages, all experiments were run in triplicate.
For orientation: A flow cytometer gives signals particle by particle.

In the next assay the test system is CT26 cells. Briefly: CT26/Balb-c syngeneic mouse tumor model. It is filed as in vivo. The settings on record: intravenous injections on treatment days 1, 4, 7 and 11; MAD-PAC3.5 127 μg/injection, free paclitaxel molar equivalent. How it is done:
Mice were implanted with CT26 cells that were permitted to grow and become established until they had attained tumor volumes of 80-100 mm 3. Tumor bearing mice (n=10/treatment group) were administered test articles by intravenous injections on 4 days (treatment days, 1, 4, 7, and 11). […] Tumor volumes were measured and recorded at regular intervals.

The structures appear in SMILES notation.

As to `CC(=O)O[C@H]1C(=O)[C@@]2(C)[C@H]([C@H](OC(=O)c3ccccc3)[C@]3(O)C[C@H](OC(=O)[C@H](O)[C@@H](NC(=O)c4ccccc4)c4ccccc4)C(C)=C1C3(C)C)[C@]1(OC(C)=O)CO[C@@H]1C[C@@H]2O` [free paclitaxel, paclitaxel], in the assay on human macrophages, the “expression of CD80” value is “increased the expression”, the “expression of CD86” value is recorded as “increased the expression”, the “expression of CD163” value was “modestly increased expression” and the “expression of CD206” value is on record as “modestly increased expression”. Also, in the assay with human macrophages, the “expression of MHC1” value is recorded as “not significantly altered”, the “expression of MHC2” value is reported as “not significantly altered”, the “expression of PD1” value is “not by free paclitaxel” and the “expression of SIRPa” value is “not significantly altered”. Further, in the assay with CT26 cells, the “mean tumor volume on treatment day 14 compared to saline” value is “modestly decreased mean tumor volumes”.

Values taken from patent US20240024491A1, “MANNOSYLATED AMINE DEXTRAN DRUG DELIVERY VEHICLES WITH DEGRADABLE DISULFIDE/CARBONATE LINKERS TARGETING PAYLOADS TO CD206 EXPRESSING CELLS” (Navidea Biopharmaceuticals, Inc., priority 2022, published 2024).
